Measured values as given in ChEMBL document CHEMBL1201862, “PubChem BioAssay data set” (2004).
Structures can show the parent of a compound that is named as a salt. One block for each molecule: values may come before it. Active and inactive are the calls of the source.

How the values were obtained:
[1] = viability loss in Vero cells – cytotoxicity control for Vif-APOBEC3G degradation inhibitor project, dose response (AID 1117358); assay type: functional; conditions: Vero
[2] = molecular target: T1, RNA-binding protein pos-1 (Caenorhabditis elegans, UniProt G5EF15); assay: disruptors of C. elegans POS-1 RNA interaction – biochemical, fluorescence polarization, dose response (AID 1964);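 note: purified POS-1 fused to maltose binding protein made in E. coli; potency of compounds blocking POS-1 binding to fluorescent RNA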
T1 sequence (G5EF15 whole entry): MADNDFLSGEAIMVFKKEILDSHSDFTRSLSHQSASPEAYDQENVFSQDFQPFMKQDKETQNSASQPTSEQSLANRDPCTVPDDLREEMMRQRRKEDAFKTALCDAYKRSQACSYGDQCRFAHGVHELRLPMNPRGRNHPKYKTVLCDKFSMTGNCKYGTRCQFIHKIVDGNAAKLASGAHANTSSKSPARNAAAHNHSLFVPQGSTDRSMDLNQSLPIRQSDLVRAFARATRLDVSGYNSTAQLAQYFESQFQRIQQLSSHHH

[3] = molecular target: T2, Zinc finger protein mex-5 (Caenorhabditis elegans, UniProt Q9XUB2); assay: potency of MEX-5 RNA-binding blockers – biochemical, C. elegans, fluorescence polarization, dose response (AID 1960)
T2 sequence (Q9XUB2 whole entry): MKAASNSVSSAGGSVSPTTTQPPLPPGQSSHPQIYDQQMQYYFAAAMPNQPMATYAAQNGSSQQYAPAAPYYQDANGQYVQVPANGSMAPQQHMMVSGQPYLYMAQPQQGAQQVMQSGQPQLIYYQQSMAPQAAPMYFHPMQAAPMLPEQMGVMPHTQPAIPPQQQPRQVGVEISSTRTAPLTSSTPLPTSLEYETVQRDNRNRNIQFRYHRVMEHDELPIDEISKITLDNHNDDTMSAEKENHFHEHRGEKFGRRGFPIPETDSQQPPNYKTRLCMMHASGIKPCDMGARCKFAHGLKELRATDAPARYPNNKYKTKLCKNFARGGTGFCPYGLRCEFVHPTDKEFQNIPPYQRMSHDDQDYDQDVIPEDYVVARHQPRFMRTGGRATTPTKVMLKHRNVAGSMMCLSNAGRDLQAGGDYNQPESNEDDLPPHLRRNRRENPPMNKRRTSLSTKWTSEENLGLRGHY

[4] = molecular target: T3, Apoptotic protease-activating factor 1 (Homo sapiens, UniProt O14727); assay type: functional
T3 sequence (O14727 whole entry): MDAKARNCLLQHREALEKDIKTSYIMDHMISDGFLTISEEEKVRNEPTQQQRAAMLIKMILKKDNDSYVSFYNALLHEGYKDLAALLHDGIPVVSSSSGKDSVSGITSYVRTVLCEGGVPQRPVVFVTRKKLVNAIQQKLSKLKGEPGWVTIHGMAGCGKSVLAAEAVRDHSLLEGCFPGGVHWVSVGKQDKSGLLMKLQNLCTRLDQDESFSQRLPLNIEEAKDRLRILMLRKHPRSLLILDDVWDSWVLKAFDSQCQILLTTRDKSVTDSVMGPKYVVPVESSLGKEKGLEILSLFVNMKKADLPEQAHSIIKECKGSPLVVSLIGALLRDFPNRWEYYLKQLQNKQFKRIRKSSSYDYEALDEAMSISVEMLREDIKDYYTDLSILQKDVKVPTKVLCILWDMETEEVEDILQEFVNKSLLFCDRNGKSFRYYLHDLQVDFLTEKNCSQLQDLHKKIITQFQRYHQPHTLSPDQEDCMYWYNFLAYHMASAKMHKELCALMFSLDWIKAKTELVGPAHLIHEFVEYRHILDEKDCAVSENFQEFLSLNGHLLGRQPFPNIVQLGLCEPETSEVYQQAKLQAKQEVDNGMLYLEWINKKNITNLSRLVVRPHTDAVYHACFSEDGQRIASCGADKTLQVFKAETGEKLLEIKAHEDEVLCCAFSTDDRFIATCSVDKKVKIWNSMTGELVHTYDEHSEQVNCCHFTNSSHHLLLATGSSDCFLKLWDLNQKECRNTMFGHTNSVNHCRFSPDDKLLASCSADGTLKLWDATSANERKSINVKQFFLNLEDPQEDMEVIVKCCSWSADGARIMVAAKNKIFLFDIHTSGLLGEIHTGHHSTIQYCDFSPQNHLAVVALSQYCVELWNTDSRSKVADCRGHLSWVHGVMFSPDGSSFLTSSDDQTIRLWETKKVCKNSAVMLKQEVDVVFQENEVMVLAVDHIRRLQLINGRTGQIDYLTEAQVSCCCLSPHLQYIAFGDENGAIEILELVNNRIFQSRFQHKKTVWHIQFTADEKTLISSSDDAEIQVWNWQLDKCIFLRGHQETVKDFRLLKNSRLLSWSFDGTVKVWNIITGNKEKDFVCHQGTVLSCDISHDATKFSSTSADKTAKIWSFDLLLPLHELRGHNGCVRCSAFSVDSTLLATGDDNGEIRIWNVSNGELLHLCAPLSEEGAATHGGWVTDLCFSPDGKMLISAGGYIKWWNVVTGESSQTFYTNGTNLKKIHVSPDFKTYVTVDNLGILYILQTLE

Genome polyprotein = Genome polyprotein (dengue virus type 2, UniProt P29990); assay: flavivirus cap methylation enzyme inhibition – biochemical, confirmation dose response, primary screen (AID 588689); assay type: functional
[5] = molecular target: Glutathione-S-transferase (Schistosoma japonicum, UniProt Q26513); assay: GST-antibody interaction or FRET quenching – biochemical, TR-FRET, artefact control for Vif-APOBEC3G degradation inhibitor project, dose response (AID 1117362); assay type: functional
[6] = viability inhibitors of stage V gametocytes – luminescence, dose response (AID 1117278); assay type: functional, cell-based;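 note: gametocytes exposed to compound for 24 hours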
[7] = viability loss in human Jurkat cells – cell-based, luminescence, cytotoxicity control for P. falciparum gametocyte viability project, dose response (AID 1117277); assay type: functional;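 note: potency reflects loss of cellular ATP meaning fewer viable cells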
[8] = loss of HEK293T viability via ATP – cell-based, plate reader, dry powder, set 10, cytotoxicity control, dose response (AID 743315); assay type: functional; conditions: HEK293
[9] = viability loss in A549 lung cells – cell-based, 24 h, CellTiter-Glo luminescence, cherry-picks, cytotoxicity control, dose response (AID 1053115); assay type: functional; conditions: A549, 24 h
[10] = lung carcinoma cell viability loss – CellTiter-Glo luminescence, dry powder, set 17, dose response (AID 1117284); assay type: functional, cell-based; conditions: A549
[11] = molecular target: T4, Low molecular weight phosphotyrosine protein phosphatase (Homo sapiens, UniProt P24666); assay: inhibition of LMPTP-A enzymatic activity – biochemical, OMFP substrate, fluorescence intensity, set 2, dose response (AID 743307); assay type: functional
T4 sequence (P24666 whole entry): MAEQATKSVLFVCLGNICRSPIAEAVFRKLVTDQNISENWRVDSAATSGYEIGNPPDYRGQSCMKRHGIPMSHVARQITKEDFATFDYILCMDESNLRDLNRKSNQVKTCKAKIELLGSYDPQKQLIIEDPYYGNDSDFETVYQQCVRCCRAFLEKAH

[12] = molecular target: T4, Low molecular weight phosphotyrosine protein phosphatase; assay: inhibition of human LMPTP enzyme activity – biochemical, absorbance, pNPP substrate, LMPTP-A isoform, set 2, orthogonal assay, dose response (AID 743308); assay type: functional
[13] = NIH-3T3 fibroblast cytotoxicity, dose response, cytotoxicity control, cell-based, fluorescence, Alamar Blue, secondary assay (AID 2327); assay type: functional;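 note: NIH-3T3 mouse fibroblasts cultured with fluconazole at 8 µg/mL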
cells [14] = assay type: functional, cell-based
[15] = fluconazole-exposed Candida albicans growth modulators – fluorescence, retest, confirmation (AID 2467); assay type: functional, cell-based
cells [16] = assay type: functional, cell-based; remark: listed apart in the source
[17] = molecular target: Serine/threonine-protein phosphatase (Candida dubliniensis (strain CD36 / CBS 7987 / NCPF 3949 / NRRLY-17841) (Yeast), UniProt B9W6M3); assay: blockers of CaCl2-induced CDRE-lacZ signaling – S. cerevisiae, luminescence, secondary, dose response (AID 2388); assay type: functional, cell-based;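 note: yeast reporter cells carrying a calcineurin-responsive lacZ construct stimulated with calcium chloride; luminescent beta-galactosidase reporter signal in whole cells rather than isolated phosphatase activity; potency for inhibition where a drop in reporter signal means calcineurin blockade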
[18] = molecular target: ATP-dependent molecular chaperone HSP82 (Candida albicans (strain WO-1) (Yeast), UniProt C4YTQ8); assay: steroid-induced GRE reporter decrease in yeast – S. cerevisiae, luminescence, Hsp90 inhibitor project, dose response (AID 2400); assay type: functional, cell-based;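 note: beta-galactosidase luminescence from glucocorticoid response element reporter as proxy for Hsp90 function; inhibitor potency where signal loss means Hsp90 inhibition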
[19] = rise of 2N DNA cells, HeLa – IC50, dose response (AID 1117349); assay type: functional, cell-based
[20] = rise of 4N DNA cells, HeLa – IC50, dose response (AID 1117351); assay type: functional, cell-based
[21] = IC50 of insulin release inhibition, rat insulinoma INS-1E line, 5 mM glucose, cell-based (AID 1117331); assay type: functional

Sequence of Glutathione-S-transferase (Q26513 whole entry): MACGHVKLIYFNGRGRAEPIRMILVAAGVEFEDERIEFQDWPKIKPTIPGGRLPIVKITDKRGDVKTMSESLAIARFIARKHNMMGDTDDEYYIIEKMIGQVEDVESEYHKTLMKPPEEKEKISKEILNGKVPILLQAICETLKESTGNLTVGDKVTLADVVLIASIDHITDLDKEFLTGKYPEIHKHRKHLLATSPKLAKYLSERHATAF
Sequence of Serine/threonine-protein phosphatase (B9W6M3 whole entry): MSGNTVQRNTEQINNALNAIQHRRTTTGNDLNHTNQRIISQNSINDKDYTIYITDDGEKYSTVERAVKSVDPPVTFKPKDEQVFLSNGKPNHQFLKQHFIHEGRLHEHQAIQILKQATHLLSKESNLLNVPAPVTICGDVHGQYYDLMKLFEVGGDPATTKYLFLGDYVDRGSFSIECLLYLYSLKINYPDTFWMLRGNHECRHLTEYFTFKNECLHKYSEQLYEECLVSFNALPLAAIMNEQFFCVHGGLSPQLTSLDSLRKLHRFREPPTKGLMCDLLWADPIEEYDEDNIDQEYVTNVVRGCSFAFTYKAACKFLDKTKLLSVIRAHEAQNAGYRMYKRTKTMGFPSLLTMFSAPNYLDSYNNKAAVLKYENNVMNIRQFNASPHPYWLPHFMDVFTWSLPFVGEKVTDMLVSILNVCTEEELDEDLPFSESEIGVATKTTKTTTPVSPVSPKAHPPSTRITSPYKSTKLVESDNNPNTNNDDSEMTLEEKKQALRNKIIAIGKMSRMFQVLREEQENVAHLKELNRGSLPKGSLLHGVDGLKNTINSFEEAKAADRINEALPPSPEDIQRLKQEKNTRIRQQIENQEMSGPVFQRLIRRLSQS
Sequence of Genome polyprotein (P29990 2492-3391 limits assumed): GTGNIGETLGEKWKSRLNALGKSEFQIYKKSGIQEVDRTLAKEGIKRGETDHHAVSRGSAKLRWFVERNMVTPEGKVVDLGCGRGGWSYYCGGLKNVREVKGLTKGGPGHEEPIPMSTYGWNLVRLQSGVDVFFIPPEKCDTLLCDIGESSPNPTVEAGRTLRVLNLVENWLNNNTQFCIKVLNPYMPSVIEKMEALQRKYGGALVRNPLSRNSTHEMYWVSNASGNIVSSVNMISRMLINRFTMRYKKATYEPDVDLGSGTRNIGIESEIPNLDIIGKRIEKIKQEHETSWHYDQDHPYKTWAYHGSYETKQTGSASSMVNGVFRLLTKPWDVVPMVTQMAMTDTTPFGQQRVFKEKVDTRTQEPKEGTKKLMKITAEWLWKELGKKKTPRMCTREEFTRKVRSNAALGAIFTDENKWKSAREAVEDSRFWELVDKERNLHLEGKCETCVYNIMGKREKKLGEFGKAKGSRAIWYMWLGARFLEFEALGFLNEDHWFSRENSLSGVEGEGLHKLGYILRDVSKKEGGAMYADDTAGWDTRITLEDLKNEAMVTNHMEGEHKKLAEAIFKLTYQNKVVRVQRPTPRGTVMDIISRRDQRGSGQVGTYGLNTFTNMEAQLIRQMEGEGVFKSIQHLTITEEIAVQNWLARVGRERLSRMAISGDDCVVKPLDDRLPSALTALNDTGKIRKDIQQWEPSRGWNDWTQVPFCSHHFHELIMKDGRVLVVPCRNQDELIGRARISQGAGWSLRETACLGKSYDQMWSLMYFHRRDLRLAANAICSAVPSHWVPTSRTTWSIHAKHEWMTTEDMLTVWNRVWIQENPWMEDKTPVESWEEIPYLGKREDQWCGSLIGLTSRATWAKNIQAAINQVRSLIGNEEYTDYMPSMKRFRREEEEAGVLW
Sequence of ATP-dependent molecular chaperone HSP82 (C4YTQ8 whole entry): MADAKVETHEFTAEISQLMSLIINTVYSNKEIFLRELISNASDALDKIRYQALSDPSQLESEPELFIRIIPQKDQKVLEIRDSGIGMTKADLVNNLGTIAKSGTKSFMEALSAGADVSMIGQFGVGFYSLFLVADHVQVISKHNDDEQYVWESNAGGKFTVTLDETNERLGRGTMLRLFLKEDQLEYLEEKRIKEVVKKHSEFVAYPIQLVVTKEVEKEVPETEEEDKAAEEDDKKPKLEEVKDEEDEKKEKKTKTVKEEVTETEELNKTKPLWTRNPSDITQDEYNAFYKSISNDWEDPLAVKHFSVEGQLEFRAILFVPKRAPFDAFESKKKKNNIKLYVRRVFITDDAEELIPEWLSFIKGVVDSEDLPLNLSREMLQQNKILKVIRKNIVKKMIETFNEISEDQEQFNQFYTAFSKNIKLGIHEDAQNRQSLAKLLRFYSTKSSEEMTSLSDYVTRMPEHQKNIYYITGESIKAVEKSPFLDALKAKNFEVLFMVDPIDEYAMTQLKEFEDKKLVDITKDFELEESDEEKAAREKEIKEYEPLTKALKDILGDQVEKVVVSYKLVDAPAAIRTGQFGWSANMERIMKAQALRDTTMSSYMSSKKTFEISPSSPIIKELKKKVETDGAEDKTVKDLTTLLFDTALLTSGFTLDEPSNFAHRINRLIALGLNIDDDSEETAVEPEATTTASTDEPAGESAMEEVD

Structure (SMILES): Oc1ccccc1-c1cc(C(F)(F)C(F)F)[nH]n1
CC50 [1]: > 40 µM (active)

EC50 [2]: 46.9 µM (active)
EC50 [3]: 42 µM (active)
IC50 [4]: 15.4 µM (active)
IC50 (Genome polyprotein): 19.8 µM (active)
IC50 [5]: > 100 µM (active)
Structure (SMILES): COC(=O)CCC(=O)OC1(C)C(=O)C2=CN(CCCOC(C)C)C(c3ccc(OC)cc3)=CC2=C(Br)C1=O (configuration not stated)

Structure (SMILES): CCOC(=O)c1c(N)c2cc([N+](=O)[O-])cnc2n1C
IC50 [6]: > 109 µM (inactive)
IC50 [7]: > 83.4 µM (inactive)

Structure (SMILES): CC(C)c1ccc(OCCn2c(=S)[nH]c3ccccc32)cc1
AC50 [8]: 27.3 µM (active)

Structure (SMILES): C[C@H]1CN([C@@H](C)CO)S(=O)(=O)c2ccc(C#CC(C)(C)O)cc2O[C@H]1CN(C)Cc1ccc(-c2ccccc2)cc1
AC50 [9]: > 60 µM (inactive)
AC50 [10]: 20.4 µM (active)

IC50 [11]: > 80 µM (inactive)
IC50 [12]: > 80 µM (inactive)
Structure (SMILES): c1ccc(-c2nc(NCCN3CCCC3)c3ccccc3n2)cc1

Structure (SMILES): CC(=O)N(O)CCCCCNC(=O)CCC(=O)N(O)CCCCCNC(=O)CCC(=O)N(O)CCCCCN [DEFEROXAMINE MESYLATE]
EC50 [13]: > 150 µM (inactive)
EC50 (cells [14]): 225 µM (active)
EC50 [15]: 0.578 µM (active)
EC50 (cells [16]): > 350 µM (not active)
EC50 [17]: > 180 µM (inactive)
EC50 [18]: > 150 µM (inactive)
IC50 [19]: > 10 µM (inactive)
IC50 [20]: > 10 µM (inactive)

Structure (SMILES): CN1CCC(N(Cc2cccs2)c2ccccc2)CC1 [THENALIDINE]
IC50 [21]: 20.4 µM (inactive)
